The values that follow come from patent US20260124222A1, “ISOTHIAZOLYLCARBOXAMIDE COMPOUNDS AND THEIR USE IN THERAPY” (HOTSPOT THERAPEUTICS, INC., priority 2022, published 2026).

Each structure is given as a SMILES string. Some results are limits rather than exact numbers.

The target of the experiment is T1, Avi-tagged FL MALT-1 (Homo sapiens, UniProt Q9UDY8).
T1 construct: Avi-tagged FL MALT-1 (Pharmaron, stored at −70° C.); Avi-tag; purchased Pharmaron
T1 sequence (Q9UDY8 1-824): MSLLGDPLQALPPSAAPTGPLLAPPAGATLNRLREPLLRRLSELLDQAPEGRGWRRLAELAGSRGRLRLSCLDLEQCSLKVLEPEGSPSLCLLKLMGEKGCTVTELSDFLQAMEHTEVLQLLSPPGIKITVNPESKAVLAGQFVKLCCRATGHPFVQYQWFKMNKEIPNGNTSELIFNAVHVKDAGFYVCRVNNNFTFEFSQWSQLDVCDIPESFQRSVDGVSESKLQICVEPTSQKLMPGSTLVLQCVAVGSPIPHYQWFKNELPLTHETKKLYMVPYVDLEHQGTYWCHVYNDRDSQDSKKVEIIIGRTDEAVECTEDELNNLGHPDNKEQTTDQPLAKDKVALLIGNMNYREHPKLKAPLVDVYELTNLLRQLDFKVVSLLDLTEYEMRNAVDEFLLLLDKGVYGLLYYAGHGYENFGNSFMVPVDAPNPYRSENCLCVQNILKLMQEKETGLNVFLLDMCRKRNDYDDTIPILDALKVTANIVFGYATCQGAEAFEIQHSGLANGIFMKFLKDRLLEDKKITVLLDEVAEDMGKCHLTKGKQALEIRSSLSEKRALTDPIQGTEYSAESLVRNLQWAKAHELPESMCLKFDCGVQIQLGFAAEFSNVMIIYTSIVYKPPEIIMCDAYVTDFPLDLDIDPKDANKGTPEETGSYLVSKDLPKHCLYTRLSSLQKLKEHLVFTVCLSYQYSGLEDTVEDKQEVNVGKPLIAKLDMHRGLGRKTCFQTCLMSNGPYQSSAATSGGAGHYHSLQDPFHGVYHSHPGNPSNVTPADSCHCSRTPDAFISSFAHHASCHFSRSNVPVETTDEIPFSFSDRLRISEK
Kind of experiment: MALT-1 Fluorogenic Peptide Cleavage Assay (MALT1 inhibition assay). The format is biochemical. The note with it: Ac-LRSR-AMC peptide substrate; 30 min pre-incubation, 90 min reaction at room temperature; fluorescence. The protocol:
Inhibition of MALT1 activity by a small molecule was evaluated using MALT-1 Fluorogenic Peptide Cleavage Assay. The assay utilizes a quenched AMC-labelled peptide that contains the MALT-1 recognition sequence and cleavage site (LRSR). MALT-1 mediated cleavage of the peptide relieves the quenching and leads to an increase in fluorescence at excitation (342 nm) and emission (441 nm).
The following reagents were obtained commercially and used to prepare standard reagent formulations as further described below: N-2-hydroxyethylpiperazine-N-2-ethane sulfonic acid (HEPES) (1 M, pH 7.5, stored at 4° C.), sodium citrate (stored at RT), tris(2-carboxyethyl)phosphine hydrochloride (T-CEP) (500 mM, stored at −20° C.), ethylenediaminetetraacetic acid (EDTA) (500 mM, stored at RT), dimethylsulfoxide (DMSO, stored at RT), 3-[(3-cholamidopropyl)dimethylammonio]-1-propane sulphate (CHAPS) (stored at RT), dimethylsulfoxide (DMSO), DMSO (Fisher Scientific, stored at RT), Avi-tagged FL MALT-1 (Pharmaron, stored at −70° C.), Ac-LRSR-AMC Peptide (SM Biochemicals, stored at −20° C.), and ultrapure water (MILLI-Q®).
The standard reagent formulations used in this assay were prepared and stored as follows. A 1.1 M solution of sodium citrate (161.3 g, 500 mL) was prepared and stored at room temperature. A 10% (w/v) CHAPS solution (2.0 g, 20 mL) was prepared and stored at 4° C. A 500 mM HEPES solution having pH of 6.89 was prepared from 200 mL of a 1 M HEPES solution having a pH of 7.5 using concentrated hydrochloric acid and brought to a final volume of 400 mL with MILLI-Q© H2O. The substrate, 10 mM Ac-LRSR-AMC Peptide, was prepared (10 mg, 1.370 mL DMSO) and stored at −20° C.
Compounds were plated to provide a 2% DMSO final concentration using a ProxiPlate-384 Plus F Black 384-shallow well microplate. The assay-ready plates were equilibrated to room temperature. A reaction buffer (30 mL total volume) was prepared by combining HEPES (pH 6.89, 25 mM, 1.5 mL), sodium citrate (660 mM, 18.0 mL), T-CEP (1 mM, 0.06 mL), EDTA (0.1 mM, 0.06 mL), CHAPS (0.05%, 0.15 mL), DMSO (2%, 0.6 mL), and MILLI-Q® H2O (10.23 mL; 9.63 mL when backfilled to 2% DMSO) followed by thorough mixing.
MALT-1 was thawed and kept on ice. Peptide substrate was thawed on the bench under ambient conditions. A MALT-1 enzyme working stock was prepared from Avi-tagged FL MALT-1 (40 nM in a prepared reagent volume of […]) and the reaction buffer (13.0 mL). MALT1 working stock (5 μL) was added to each well of the microplate. MALT-1 was pre-incubated with compounds for 30 minutes at room temperature.
Two substrate working stocks (Km and 10×Km) were prepared. The 1×Km substrate was prepared from Ac-LRSR-AMC Peptide (50 μM in a prepared reagent volume of […]) and the reaction buffer (6.965 mL). The 10×Km substrate was prepared from Ac-LRSR-AMC Peptide ([…] in a prepared reagent volume of 196.0 μL) and the reaction buffer (6.804 mL). The reaction was initiated by the addition of substrate working stock (5 μL, 50 μM) to Km plates and the addition of substrate working stock (5 μL 280 μM) to 10×Km plates. The plates were covered and incubated on the bench at room temperature for 90 minutes.
Fluorescence intensity was determined using a CLARIOstar microplate reader (BMG LABTECH) using the optimised AMC mode. Before taking readings, a 70% gain was applied on the neutral control well. Compound data were normalised to % Inhibition and used to plot sigmoidal concentration response curves to yield various parameters including IC50.
For orientation: IC50 means the concentration at which inhibition is half-maximal. Read a high IC50 as weaker potency in that assay. In turn, `O=C(Nc1cnc(-n2nccn2)c(Cl)c1)c1snc(-c2ccccc2)c1I` [I-1, N-(5-CHLORO-6-(2H-1,2,3-TRIAZOL-2-YL)PYRIDIN-3-YL)-4-IODO-3-PHENYLISOTHIAZOLE-5-CARBOXAMIDE] displayed a half-maximal inhibitory concentration (IC50) of no more than 400 nM.

Regarding `O=C(Nc1cnc(-n2nccn2)c(Cl)c1)c1cc(-c2ccccc2)ns1` [I-2, N-(5-CHLORO-6-(2H-1,2,3-TRIAZOL-2-YL)PYRIDIN-3-YL)-3-PHENYLISOTHIAZOLE-5-CARBOXAMIDE], the concentration for half-maximal inhibition (IC50) fell in the range of 1000 to 2500 nM. The result for `Cc1c(-c2ccccc2)nsc1C(=O)Nc1cnc(-n2nccn2)c(Cl)c1` [I-3, N-(5-CHLORO-6-(2H-1,2,3-TRIAZOL-2-YL)PYRIDIN-3-YL)-4-METHYL-3-PHENYLISOTHIAZOLE-5-CARBOXAMIDE] reads no more than 400 nM. Take `N#Cc1c(-c2ccccc2)nsc1C(=O)Nc1cnc(-n2nccn2)c(Cl)c1` [I-4, N-(5-CHLORO-6-(2H-1,2,3-TRIAZOL-2-YL)PYRIDIN-3-YL)-4-CYANO-3-PHENYLISOTHIAZOLE-5-CARBOXAMIDE]: the IC50 was 400 to 1000 nM. The result for `CC(C)c1c(-c2ccccc2)nsc1C(=O)Nc1cnc(-n2nccn2)c(Cl)c1` [I-5, N-(5-CHLORO-6-(2H-1,2,3-TRIAZOL-2-YL) PYRIDIN-3-YL)-4-ISOPROPYL-3-PHENYLISOTHIAZOLE-5-CARBOXAMIDE] reads no more than 400 nM; that for `O=C(Nc1cnc(-n2nccn2)c(Cl)c1)c1snc(-c2ccccc2)c1C1CC1` [I-6, N-(5-CHLORO-6-(2H-1,2,3-TRIAZOL-2-YL) PYRIDIN-3-YL)-4-CYCLOPROPYL-3-PHENYLISOTHIAZOLE-5-CARBOXAMIDE], no more than 400 nM; that for `O=C(Nc1cnc(-n2nccn2)c(Cl)c1)c1snc(-c2ccccc2)c1C(F)(F)F` [I-7, N-(5-CHLORO-6-(2H-1,2,3-TRIAZOL-2-YL) PYRIDIN-3-YL)-3-PHENYL-4-(TRIFLUOROMETHYL)ISOTHIAZOLE-5-CARBOXAMIDE], no more than 400 nM.

As to `N#Cc1cc(NC(=O)c2snc(-c3ccccc3)c2C(F)(F)F)cnc1-n1nccn1` [I-8, N-(5-CYANO-6-(2H-1,2,3-TRIAZOL-2-YL)PYRIDIN-3-YL)-3-PHENYL-4-(TRIFLUOROMETHYL)ISOTHIAZOLE-5-CARBOXAMIDE], the 50% inhibitory concentration (IC50) was no more than 400 nM.

`N#Cc1cc(NC(=O)c2snc(-c3ccccc3)c2C2CC2)cnc1-n1nccn1` [I-9, N-(5-CYANO-6-(2H-1,2,3-TRIAZOL-2-YL) PYRIDIN-3-YL)-4-CYCLOPROPYL-3-PHENYLISOTHIAZOLE-5-CARBOXAMIDE]: the IC50 is no more than 400 nM. The result for `C=Cc1c(-c2ccccc2)nsc1C(=O)Nc1cnc(-n2nccn2)c(Cl)c1` [I-10, N-(5-CHLORO-6-(2H-1,2,3-TRIAZOL-2-YL) PYRIDIN-3-YL)-4-VINYL-3-PHENYLISOTHIAZOLE-5-CARBOXAMIDE] reads no more than 400 nM; that for `CCc1c(-c2ccccc2)nsc1C(=O)Nc1cnc(-n2nccn2)c(Cl)c1` [I-11, N-(5-CHLORO-6-(2H-1,2,3-TRIAZOL-2-YL) PYRIDIN-3-YL)-4-ETHYL-3-PHENYLISOTHIAZOLE-5-CARBOXAMIDE], no more than 400 nM. The result for `Cc1cc(NC(=O)c2snc(-c3ccccc3)c2C2CC2)cnc1-n1nccn1` [I-12, 4-CYCLOPROPYL-N-(5-METHYL-6-(2H-1,2,3-TRIAZOL-2-YL)PYRIDIN-3-YL)-3-PHENYLISOTHIAZOLE-5-CARBOXAMIDE] reads no more than 400 nM; that for `O=C(Nc1cnc(-n2nccn2)c(C(F)F)c1)c1snc(-c2ccccc2)c1C1CC1` [I-13, 4-CYCLOPROPYL-N-(5-(DIFLUOROMETHYL)-6-(2H-1,2,3-TRIAZOL-2-YL)PYRIDIN-3-YL)-3-PHENYLISOTHIAZOLE-5-CARBOXAMIDE], no more than 400 nM. The result for `O=C(Nc1cnc(-n2nccn2)c(C(F)(F)F)c1)c1snc(-c2ccccc2)c1C1CC1` [I-14, 4-CYCLOPROPYL-N-(5-(TRIFLUOROMETHYL)-6-(2H-1,2,3-TRIAZOL-2-YL)PYRIDIN-3-YL)-3-PHENYLISOTHIAZOLE-5-CARBOXAMIDE] reads no more than 400 nM; that for `O=C(Nc1ccnc(C(F)(F)F)c1)c1snc(-c2ccccc2)c1C(F)(F)F` [I-15, 3-PHENYL-4-(TRIFLUOROMETHYL)-N-(2-(TRIFLUOROMETHYL)PYRIDIN-4-YL)ISOTHIAZOLE-5-CARBOXAMIDE], no more than 400 nM; that for `O=C(Nc1ccc(C(=O)N2CC(O)C2)c(Cl)c1)c1snc(-c2ccccc2)c1C(F)(F)F` [I-16, N-(3-CHLORO-4-(3-HYDROXYAZETIDINE-1-CARBONYL)PHENYL)-3-PHENYL-4-(TRIFLUOROMETHYL)ISOTHIAZOLE-5-CARBOXAMIDE], no more than 400 nM. Regarding `O=C(Nc1ccc(C(=O)N2CC(O)C2)c(Cl)c1)c1snc(-c2ccccc2)c1C1CC1` [I-17, N-(3-CHLORO-4-(3-HYDROXYAZETIDINE-1-CARBONYL)PHENYL)-3-PHENYL-4—(CYCLOPROPYL)ISOTHIAZOLE-5-CARBOXAMIDE], the IC50 was no more than 400 nM.

The compound `CN(C(=O)c1snc(-c2ccccc2)c1C(F)(F)F)c1cnc(-n2nccn2)c(Cl)c1` [I-18, N-(5-CHLORO-6-(2H-1,2,3-TRIAZOL-2-YL) PYRIDIN-3-YL)-N-METHYL-3-PHENYL-4-(TRIFLUOROMETHYL)ISOTHIAZOLE-5-CARBOXAMIDE] showed a 50% inhibitory concentration (IC50) of no more than 400 nM. Then `O=C(Nc1cnc(-n2nccn2)c(Cl)c1)c1snc(-c2ncccc2Cl)c1C(F)(F)F` [I-19, N-(5-CHLORO-6-(2H-1,2,3-TRIAZOL-2-YL) PYRIDIN-3-YL)-3-(3-CHLOROPYRIDIN-2-YL)-4-(TRIFLUOROMETHYL) ISOTHIAZOLE-5-CARBOXAMIDE], with no more than 400 nM; and `N#Cc1cc(NC(=O)c2snc(-c3ncccc3Cl)c2C(F)(F)F)cnc1-n1nccn1` [I-20, 3-(3-CHLOROPYRIDIN-2-YL)-N-(5-CYANO-6-(2H-1,2,3-TRIAZOL-2-YL)PYRIDIN-3-YL)-4-(TRIFLUOROMETHYL)ISOTHIAZOLE-5-CARBOXAMIDE], with no more than 400 nM; and `CN(C)C(=O)c1ccc(NC(=O)c2snc(-c3ccccc3)c2C2CC2)cc1Cl` [I-21, N-(3-CHLORO-4-(DIMETHYLCARBAMOYL) PHENYL)-4-CYCLOPROPYL-3-PHENYLISOTHIAZOLE-5-CARBOXAMIDE], with no more than 400 nM. Then `O=C(Nc1ccc(C(=O)N2CCOCC2)c(Cl)c1)c1snc(-c2ccccc2)c1C1CC1` [I-22, N-(3-CHLORO-4-(MORPHOLINE-4-CARBONYL) PHENYL)-4-CYCLOPROPYL-3-PHENYLISOTHIAZOLE-5-CARBOXAMIDE], with no more than 400 nM.
